Tests used:
Experiment in all cases: relative viability (nuclei count vs DMSO), 5 days (fraction); higher = more cells survive
Seliciclib + Palbociclib = compound: CC[C@H](CO)Nc1nc(NCc2ccccc2)c2ncn(C(C)C)c2n1 [Seliciclib] + CC(=O)c1c(C)c2cnc(Nc3ccc(N4CCNCC4)cn3)nc2n(C2CCCC2)c1=O [Palbociclib] (partner 0.5 µM)
Outline: (§1)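 Lung cancer cell lines in 1536-well plates were dosed by pin tool the day after seeding, either with one drug alone or with a fixed anchor-drug dose plus five library-drug doses (not always all listed) in √10 steps. After 5 days, cells were fixed and their nuclei stained in one step (final 0.05% Triton X-100, 1% formaldehyde, 1 ug/ml Hoechst), then counted on 4× images. Relative viability is the nuclei count in treated wells divided by that in vehicle wells. Values are medians of duplicate plates.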

Seliciclib + Luminespib = compound: CC[C@H](CO)Nc1nc(NCc2ccccc2)c2ncn(C(C)C)c2n1 [Seliciclib] + CCNC(=O)c1noc(-c2cc(C(C)C)c(O)cc2O)c1-c1ccc(CN2CCOCC2)cc1 [Luminespib] (partner 0.01 µM)
Outline: as §1

Seliciclib + OSI-027 = compound: CC[C@H](CO)Nc1nc(NCc2ccccc2)c2ncn(C(C)C)c2n1 [Seliciclib] + COc1cccc2cc(-c3nc([C@H]4CC[C@H](C(=O)O)CC4)n4ncnc(N)c34)[nH]c12 [OSI-027] (partner 0.5 µM)
Outline: as §1

Seliciclib + Pictilisib = compound: CC[C@H](CO)Nc1nc(NCc2ccccc2)c2ncn(C(C)C)c2n1 [Seliciclib] + CS(=O)(=O)N1CCN(Cc2cc3nc(-c4cccc5[nH]ncc45)nc(N4CCOCC4)c3s2)CC1 [Pictilisib] (partner 1 µM)
Outline: as §1

Row | Cell Line | relative viability (Seliciclib + Palbociclib; first compound 0.08 µM) | relative viability (Seliciclib + Palbociclib; first compound 0.253 µM) | relative viability (Seliciclib + Palbociclib; first compound 0.8 µM) | relative viability (Seliciclib + Palbociclib; first compound 2.53 µM) | relative viability (Seliciclib + Palbociclib; first compound 8 µM) | relative viability (Seliciclib + Luminespib; first compound 0.08 µM) | relative viability (Seliciclib + Luminespib; first compound 0.253 µM) | relative viability (Seliciclib + Luminespib; first compound 0.8 µM) | relative viability (Seliciclib + Luminespib; first compound 2.53 µM) | relative viability (Seliciclib + Luminespib; first compound 8 µM) | relative viability (Seliciclib + OSI-027; first compound 0.08 µM) | relative viability (Seliciclib + OSI-027; first compound 0.253 µM) | relative viability (Seliciclib + OSI-027; first compound 0.8 µM) | relative viability (Seliciclib + OSI-027; first compound 2.53 µM) | relative viability (Seliciclib + OSI-027; first compound 8 µM) | relative viability (Seliciclib + Pictilisib; first compound 0.08 µM) | relative viability (Seliciclib + Pictilisib; first compound 0.253 µM) | relative viability (Seliciclib + Pictilisib; first compound 0.8 µM) | relative viability (Seliciclib + Pictilisib; first compound 2.53 µM) | relative viability (Seliciclib + Pictilisib; first compound 8 µM)
1 | LU99A | 0.378 | 0.332 | 0.357 | 0.318 | 0.275 | 0.267 | 0.196 | 0.209 | 0.191 | 0.268 | 0.286 | 0.265 | 0.323 | 0.221 | 0.323 | 0.349 | 0.301 | 0.374 | 0.229 | 0.284
2 | NCI-H647 | 0.321 | 0.188 | 0.395 | 0.296 | 0.216 | 0.111 | 0.206 | 0.127 | 0.128 | 0.163 | 0.616 |  | 0.652 | 0.552 | 0.534 | 0.367 | 0.45 | 0.25 | 0.296 | 0.248
3 | A-427 | 0.488 | 0.55 | 0.504 | 0.468 | 0.427 | 0.905 | 0.744 | 0.926 | 0.873 | 0.902 | 0.419 | 0.615 | 0.442 | 0.331 | 0.401 | 0.753 | 0.737 | 0.646 | 0.688 | 0.695
4 | COR-L 105 | 0.432 | 0.392 | 0.276 | 0.365 | 0.397 | 1.07 | 0.428 | 0.817 | 0.859 | 0.532 | 0.722 | 0.622 | 0.754 | 0.56 | 0.646 | 0.379 | 0.379 | 0.371 | 0.32 | 0.36
5 | NCI-H441 | 0.199 | 0.217 | 0.203 | 0.144 | 0.14 | 0.319 | 0.296 | 0.341 | 0.299 | 0.299 | 0.794 | 0.582 | 0.645 | 0.335 | 0.423 | 0.49 | 0.635 | 0.531 | 0.469 | 0.377
6 | NCI-H2126 | 0.345 | 0.332 | 0.358 | 0.315 | 0.338 | 0.906 | 0.733 | 0.89 | 0.642 | 0.781 | 0.75 | 0.715 | 0.649 | 0.354 | 0.515 | 0.507 | 0.548 | 0.456 | 0.423 | 0.467
7 | HCC-44 | 0.969 | 1.02 | 0.994 | 0.883 | 0.889 | 0.913 | 1.07 | 1.01 | 0.997 | 0.726 | 0.488 | 0.451 | 0.508 | 0.302 | 0.508 | 0.639 | 0.691 | 0.534 | 0.46 | 0.44
8 | NCI-H460 | 0.203 | 0.186 | 0.169 | 0.117 | 0.0761 | 0.0402 | 0.0324 | 0.0419 | 0.0357 | 0.0269 | 0.706 | 0.601 | 0.672 | 0.563 | 0.561 | 0.367 | 0.376 | 0.275 | 0.248 | 0.252
9 | SK-LU-1 | 0.408 | 0.389 | 0.403 | 0.346 | 0.313 | 0.204 | 0.209 | 0.207 | 0.187 | 0.21 | 0.38 | 0.378 | 0.433 | 0.239 | 0.233 | 0.615 | 0.641 | 0.762 | 0.556 | 0.526
10 | NCI-H322M | 0.472 | 0.538 | 0.467 | 0.428 | 0.431 | 0.855 | 0.883 | 0.794 | 0.786 | 0.809 | 0.561 | 0.482 | 0.516 | 0.348 | 0.43 | 0.523 | 0.583 | 0.494 | 0.449 | 0.379
11 | EKVX | 0.365 | 0.305 | 0.311 | 0.16 | 0.204 |  | 1.03 | 0.794 | 0.821 | 0.642 |  | 0.781 | 0.661 | 0.565 | 0.537 | 0.42 | 0.5 | 0.417 | 0.423 | 0.305
12 | NCI-H1734 | 0.35 | 0.26 | 0.369 | 0.286 | 0.282 | 0.186 | 0.199 | 0.181 | 0.159 | 0.222 | 0.513 | 0.413 | 0.565 | 0.435 | 0.452 | 0.452 | 0.477 | 0.385 | 0.379 | 0.41
13 | SK-MES-1 | 0.329 | 0.336 | 0.314 | 0.259 | 0.277 | 0.814 | 0.854 | 0.733 | 1.1 | 0.601 | 0.63 | 0.655 | 0.593 | 0.462 | 0.45 | 0.317 | 0.349 | 0.353 | 0.335 | 0.31
14 | ABC-1 | 0.673 | 0.565 | 0.863 |  | 0.562 | 0.447 | 0.753 | 0.478 | 0.378 | 0.396 | 0.611 | 0.378 | 0.431 | 0.32 | 0.387 | 0.773 | 0.927 | 0.619 | 0.42 | 0.424
15 | NCI-H520 | 0.237 | 0.187 | 0.17 | 0.189 | 0.203 | 0.234 |  | 0.175 | 0.315 | 0.205 | 0.275 |  | 0.324 | 0.277 | 0.228 | 0.305 | 0.326 | 0.287 | 0.318 | 0.252
16 | EPLC-272H | 0.33 | 0.247 | 0.284 | 0.323 | 0.311 | 0.297 | 0.204 | 0.214 | 0.177 | 0.231 | 0.328 | 0.271 | 0.265 | 0.225 | 0.265 | 0.316 | 0.338 | 0.287 | 0.174 | 0.3
17 | UMC-11 | 0.317 | 0.27 | 0.325 | 0.312 | 0.303 | 0.963 | 0.78 | 1.09 | 1.06 | 0.829 | 0.537 | 0.503 | 0.48 | 0.153 | 0.422 | 0.919 | 0.891 | 0.854 | 0.8 | 0.7
18 | NCI-H1792 | 0.655 | 0.717 | 0.613 |  | 0.566 | 0.43 | 0.464 | 0.364 |  | 0.35 | 0.67 | 0.769 | 0.73 |  | 0.64 | 0.233 | 0.313 | 0.273 | 0.285 | 0.274
19 | NCI-H1993 | 0.699 | 0.567 | 0.533 | 0.547 | 0.423 | 0.879 | 0.733 | 0.875 | 0.674 | 0.612 | 0.574 | 0.529 | 0.521 | 0.556 | 0.518 | 0.816 | 0.703 | 0.847 | 0.777 | 0.847
20 | NCI-H1395 | 0.596 | 0.49 | 0.604 |  | 0.523 | 0.709 | 0.722 | 0.726 | 0.588 | 0.669 | 0.728 | 0.576 | 0.606 | 0.612 | 0.587 | 0.6 | 0.757 | 0.641 | 0.535 | 0.649
21 | HCC-827 | 0.486 | 0.493 | 0.456 | 0.39 | 0.231 | 0.519 | 0.589 | 0.55 | 0.829 | 0.588 | 0.844 | 0.612 | 0.757 | 0.801 | 0.794 | 0.953 | 0.963 | 0.811 | 1.03 | 0.925
22 | ChaGo-K-1 | 0.915 | 0.957 | 0.755 | 0.875 | 0.805 | 0.587 | 0.362 | 0.711 | 0.536 | 0.603 | 0.663 | 0.367 | 0.587 | 0.356 | 0.451 | 0.766 | 0.533 | 0.638 | 0.513 | 0.378
23 | NCI-H2228 | 0.851 | 0.617 | 0.714 | 0.86 | 0.507 | 0.157 | 0.155 | 0.14 | 0.185 | 0.149 | 0.594 | 0.437 | 0.617 | 0.473 | 0.404 | 0.372 | 0.333 | 0.234 | 0.457 | 0.339
24 | NCI-H1793 | 0.28 | 0.258 | 0.289 | 0.289 | 0.224 | 0.216 | 0.158 | 0.147 | 0.307 | 0.14 | 0.299 | 0.219 | 0.252 | 0.194 | 0.238 | 0.282 | 0.339 | 0.317 | 0.32 | 0.294
25 | EMC-BAC-2 | 0.516 | 0.474 | 0.543 | 0.423 | 0.455 | 1.15 | 1.02 | 1.15 | 1.16 | 1.11 | 0.401 | 0.317 | 0.43 | 0.253 | 0.347 | 0.505 | 0.526 | 0.497 | 0.392 | 0.51
26 | NCI-H23 | 0.548 | 0.49 | 0.416 | 0.335 | 0.258 | 0.202 | 0.206 | 0.209 | 0.211 | 0.242 | 0.645 | 0.408 | 0.652 | 0.267 | 0.505 | 0.507 | 0.462 | 0.395 | 0.283 | 0.365
27 | RERF-LC-KJ | 1 | 0.925 | 1.03 | 1.07 | 0.908 | 1.29 | 1.07 | 1.21 | 1.28 | 0.859 | 0.58 | 0.582 | 0.555 | 0.407 | 0.508 | 0.431 | 0.511 | 0.633 | 0.59 | 0.443

From the supplement of paper PMC10307832
